Experimental data as given in ChEMBL document CHEMBL1150024, “Synthesis and antiviral evaluation of enantiomeric 2,3-dideoxy- and 2,3-didehydro-2,3-dideoxy-4-thionucleosides” (Bioorg Med Chem Lett, 1995).

Tests used:
HeLa = experiment: In vitro antiviral activity against HIV in HeLa CD4 cells; type: functional, cell-based; settings: Homo sapiens
HepG2 = experiment: In vitro antiviral activity against HBV in Hep G2 cells; type: functional, cell-based; settings: Homo sapiens
[1] = In vitro cytotoxic activity against Vero cells; type: cell-based; settings: chlorocebus sabaeus, read-out: CCID50

SMILES	IC50 (HeLa)	IC50 (HepG2)	CC50 [1]
Nc1ccn([C@@H]2CC[C@H](CO)O2)c(=O)n1	> 50 µM	> 100 µM	> 500 µM
Nc1nc(=O)n([C@H]2C=C[C@@H](CO)S2)cc1F	< 50 µM	> 50 µM	> 500 µM
Nc1ccn([C@@H]2C=C[C@H](CO)S2)c(=O)n1	0.8 µM	0.8 µM	> 500 µM
Nc1ccn([C@H]2C=C[C@@H](CO)S2)c(=O)n1	23 µM	15 µM	> 500 µM
Nc1ccn([C@H]2CC[C@@H](CO)O2)c(=O)n1 [ZALCITABINE]	38 µM	> 100 µM	> 500 µM
Nc1nc(=O)n([C@@H]2C=C[C@H](CO)S2)cc1F	0.4 µM	3.5 µM	> 500 µM
Nc1nc(=O)n([C@@H]2CC[C@H](CO)O2)cc1F	> 50 µM	> 100 µM	> 500 µM
